Data taken from ChEMBL document CHEMBL1201862, “PubChem BioAssay data set” (2004).
Values belong to the molecule of their own block, whether it stands above or below them. Active and inactive are the calls of the source.

What was measured:
Paired box protein Pax-8 = Paired box protein Pax-8 (Homo sapiens, UniProt Q06710); test: PAX8 transcriptional activity inhibition in RMG-I – RMG-I cells, luciferase, cherry-pick, dose response (AID 687027); assay type: functional, cell-based;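 also: luciferase reporter driven by Pax8 target thyroperoxidase promoter measured by SteadyGlo luminescence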
Sequence of Paired box protein Pax-8 (Q06710 whole entry): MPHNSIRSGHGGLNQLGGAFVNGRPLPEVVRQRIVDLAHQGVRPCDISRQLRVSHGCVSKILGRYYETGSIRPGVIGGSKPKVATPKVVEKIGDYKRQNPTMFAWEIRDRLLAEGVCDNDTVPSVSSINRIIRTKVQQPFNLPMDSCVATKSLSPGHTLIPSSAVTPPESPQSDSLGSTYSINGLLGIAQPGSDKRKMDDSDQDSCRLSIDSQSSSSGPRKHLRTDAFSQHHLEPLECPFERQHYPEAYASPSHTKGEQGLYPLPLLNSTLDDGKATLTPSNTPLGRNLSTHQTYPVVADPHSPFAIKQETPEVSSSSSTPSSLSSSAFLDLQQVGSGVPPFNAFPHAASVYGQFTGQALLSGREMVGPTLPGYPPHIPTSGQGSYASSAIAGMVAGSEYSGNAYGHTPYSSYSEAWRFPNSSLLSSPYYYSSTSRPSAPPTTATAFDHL

[1] = Trypanosoma cruzi growth suppression in host cells – NIH3T3 host cells, beta-gal luminescence, confirmation (AID 2044); assay type: functional, cell-based;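 also: intracellular parasites grown in NIH/3T3 mouse fibroblasts as host cells; luminescent beta-galactosidase reporter signal from transgenic T. cruzi replicating inside host cells; inhibitors lower the luminescence signal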
[2] = NIH3T3 cell viability loss – ATP luminescence, mouse fibroblasts, counter-screen, dose response (AID 2010); assay type: functional, cell-based;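 also: cells exposed to compound for about 90 hours before reading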
[3] = target: T1, Microphthalmia-associated transcription factor (Homo sapiens, UniProt O75030); test: reducers of TRPM1 reporter luminescence, concentration series – cell-based, SK-MEL-5, cherry-picked, set 3, MITF inhibitor project, dose response (AID 493073); assay type: functional;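 also: SK-MEL-5 melanoma cells with luciferase driven by the MITF target TRPM1 promoter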
T1 sequence (O75030 whole entry): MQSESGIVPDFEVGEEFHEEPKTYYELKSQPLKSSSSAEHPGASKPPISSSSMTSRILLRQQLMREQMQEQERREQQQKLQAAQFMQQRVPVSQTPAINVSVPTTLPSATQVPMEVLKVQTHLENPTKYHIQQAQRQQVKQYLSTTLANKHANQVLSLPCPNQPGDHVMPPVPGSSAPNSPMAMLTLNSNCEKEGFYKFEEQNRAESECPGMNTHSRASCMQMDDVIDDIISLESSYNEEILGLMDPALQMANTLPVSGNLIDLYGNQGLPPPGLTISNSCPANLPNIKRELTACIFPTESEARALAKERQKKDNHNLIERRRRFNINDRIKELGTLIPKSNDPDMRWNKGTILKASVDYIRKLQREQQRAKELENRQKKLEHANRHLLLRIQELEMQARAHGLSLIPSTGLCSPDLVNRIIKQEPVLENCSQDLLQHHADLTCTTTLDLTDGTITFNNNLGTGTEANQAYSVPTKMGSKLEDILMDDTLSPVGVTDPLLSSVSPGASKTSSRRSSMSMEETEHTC

[4] = target: T2, Short transient receptor potential channel 4 (Mus musculus, UniProt Q9QUQ5); test: calcium entry via TRPC4 opening agents – cell-based, HEK293 TRPC4/mu-opioid, Fluo-4 calcium, dose response (AID 434937); assay type: functional
T2 sequence (Q9QUQ5 whole entry): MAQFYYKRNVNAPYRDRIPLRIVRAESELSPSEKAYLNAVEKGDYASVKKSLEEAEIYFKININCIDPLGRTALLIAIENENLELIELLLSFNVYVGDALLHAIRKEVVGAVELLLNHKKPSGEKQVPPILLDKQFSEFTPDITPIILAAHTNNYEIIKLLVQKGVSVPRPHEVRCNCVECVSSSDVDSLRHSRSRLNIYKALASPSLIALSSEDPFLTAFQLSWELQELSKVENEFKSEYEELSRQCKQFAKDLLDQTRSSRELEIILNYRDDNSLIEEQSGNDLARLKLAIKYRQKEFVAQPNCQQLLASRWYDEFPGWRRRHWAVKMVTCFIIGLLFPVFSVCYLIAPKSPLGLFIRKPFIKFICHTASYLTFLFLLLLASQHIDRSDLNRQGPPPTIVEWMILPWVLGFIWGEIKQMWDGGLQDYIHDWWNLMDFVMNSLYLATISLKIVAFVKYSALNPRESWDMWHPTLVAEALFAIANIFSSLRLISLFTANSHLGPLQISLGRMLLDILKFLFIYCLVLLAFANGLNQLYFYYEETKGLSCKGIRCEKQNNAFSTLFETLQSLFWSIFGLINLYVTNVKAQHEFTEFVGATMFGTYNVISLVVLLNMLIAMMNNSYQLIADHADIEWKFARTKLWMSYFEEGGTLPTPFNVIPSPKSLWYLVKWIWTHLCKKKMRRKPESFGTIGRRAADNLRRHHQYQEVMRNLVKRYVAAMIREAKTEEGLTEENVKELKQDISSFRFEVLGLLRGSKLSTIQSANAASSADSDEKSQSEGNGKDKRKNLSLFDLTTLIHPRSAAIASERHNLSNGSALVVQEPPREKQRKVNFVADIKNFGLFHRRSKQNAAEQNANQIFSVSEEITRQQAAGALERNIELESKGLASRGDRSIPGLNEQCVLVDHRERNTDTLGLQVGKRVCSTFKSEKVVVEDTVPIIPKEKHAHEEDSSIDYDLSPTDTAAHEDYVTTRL

INS1 = test: INS-1E survival protection against cytokine death – cell-based, luminescence, retest, dose response (AID 449756); assay type: functional; settings: Rattus norvegicus;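 also: cell death triggered by IL-1 beta plus TNF-alpha plus IFN-gamma mixture; protective hits raise ATP signal compared with cytokine alone wells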
[5] = viability of PTEN-deleted HCT116 cells – cell-based, HCT116 PTEN knockout, dose response (AID 1047); assay type: functional;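 also: HCT116 colon tumor cells with PTEN knocked out; cells exposed to compound for 60 hours before readout; potency for loss of cell viability measured by luminescence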
[6] = viability of HCT116 lacking mutant beta-catenin – cell-based, human colon tumor, dose response (AID 1045); assay type: functional;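 also: HCT116 colon tumor cells with beta catenin knocked out; cells exposed to compound for 60 hours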
Exodeoxyribonuclease V = target: T3, Exodeoxyribonuclease V (Escherichia coli (strain K12), UniProt P04993+P07648+P08394); test: RecBCD inhibition via phage-restricted bacterial growth – absorbance, V66 E. coli, mutant T4 phage, counter-screen for AddAB inhibitor project, dose response (AID 492957); assay type: functional, cell-based, Escherichia coli str. K-12 substr. MG1655
T3 sequence (P04993 whole entry): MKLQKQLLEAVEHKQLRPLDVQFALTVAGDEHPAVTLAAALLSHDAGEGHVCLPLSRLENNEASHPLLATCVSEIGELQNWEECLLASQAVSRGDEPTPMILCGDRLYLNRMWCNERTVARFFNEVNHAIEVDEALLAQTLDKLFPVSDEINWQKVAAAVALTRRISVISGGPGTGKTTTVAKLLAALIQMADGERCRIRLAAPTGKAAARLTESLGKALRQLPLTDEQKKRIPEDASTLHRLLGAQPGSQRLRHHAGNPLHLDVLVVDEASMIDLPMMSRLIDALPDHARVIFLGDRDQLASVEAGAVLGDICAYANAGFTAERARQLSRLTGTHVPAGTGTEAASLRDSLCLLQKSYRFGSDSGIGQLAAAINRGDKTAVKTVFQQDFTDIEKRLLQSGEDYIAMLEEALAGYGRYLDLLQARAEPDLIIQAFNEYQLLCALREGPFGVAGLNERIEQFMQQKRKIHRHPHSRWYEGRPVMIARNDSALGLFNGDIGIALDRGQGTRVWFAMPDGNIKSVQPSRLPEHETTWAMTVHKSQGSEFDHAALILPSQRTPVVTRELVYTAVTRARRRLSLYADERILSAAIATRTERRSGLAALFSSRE
T3 sequence (P07648 whole entry): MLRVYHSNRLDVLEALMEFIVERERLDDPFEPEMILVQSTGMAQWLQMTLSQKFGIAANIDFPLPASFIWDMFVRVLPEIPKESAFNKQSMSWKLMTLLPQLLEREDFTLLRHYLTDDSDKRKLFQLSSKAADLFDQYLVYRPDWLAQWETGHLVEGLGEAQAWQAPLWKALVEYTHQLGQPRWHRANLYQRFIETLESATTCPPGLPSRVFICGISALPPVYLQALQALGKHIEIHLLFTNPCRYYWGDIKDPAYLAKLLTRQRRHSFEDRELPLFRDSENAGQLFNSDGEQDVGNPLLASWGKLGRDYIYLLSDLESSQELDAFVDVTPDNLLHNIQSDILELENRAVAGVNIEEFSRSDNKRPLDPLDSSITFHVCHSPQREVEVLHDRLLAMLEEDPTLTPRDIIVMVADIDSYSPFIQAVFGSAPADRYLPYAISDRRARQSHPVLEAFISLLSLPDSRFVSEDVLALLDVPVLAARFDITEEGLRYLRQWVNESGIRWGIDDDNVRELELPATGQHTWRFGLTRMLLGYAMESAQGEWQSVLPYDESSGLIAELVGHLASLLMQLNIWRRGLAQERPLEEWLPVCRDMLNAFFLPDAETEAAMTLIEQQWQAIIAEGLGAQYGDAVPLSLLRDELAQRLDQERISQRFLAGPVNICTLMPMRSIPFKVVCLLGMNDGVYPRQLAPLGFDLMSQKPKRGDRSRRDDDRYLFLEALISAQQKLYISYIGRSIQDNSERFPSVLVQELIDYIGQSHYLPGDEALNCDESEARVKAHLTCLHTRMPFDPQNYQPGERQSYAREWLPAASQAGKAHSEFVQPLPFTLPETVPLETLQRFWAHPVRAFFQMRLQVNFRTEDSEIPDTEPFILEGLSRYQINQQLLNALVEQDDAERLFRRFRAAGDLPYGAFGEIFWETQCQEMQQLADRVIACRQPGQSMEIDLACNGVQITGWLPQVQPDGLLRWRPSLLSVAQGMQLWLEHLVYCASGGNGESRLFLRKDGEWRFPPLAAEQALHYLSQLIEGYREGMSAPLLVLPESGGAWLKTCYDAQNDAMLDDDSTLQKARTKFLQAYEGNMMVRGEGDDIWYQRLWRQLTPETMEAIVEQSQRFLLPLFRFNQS
T3 sequence (P08394 whole entry): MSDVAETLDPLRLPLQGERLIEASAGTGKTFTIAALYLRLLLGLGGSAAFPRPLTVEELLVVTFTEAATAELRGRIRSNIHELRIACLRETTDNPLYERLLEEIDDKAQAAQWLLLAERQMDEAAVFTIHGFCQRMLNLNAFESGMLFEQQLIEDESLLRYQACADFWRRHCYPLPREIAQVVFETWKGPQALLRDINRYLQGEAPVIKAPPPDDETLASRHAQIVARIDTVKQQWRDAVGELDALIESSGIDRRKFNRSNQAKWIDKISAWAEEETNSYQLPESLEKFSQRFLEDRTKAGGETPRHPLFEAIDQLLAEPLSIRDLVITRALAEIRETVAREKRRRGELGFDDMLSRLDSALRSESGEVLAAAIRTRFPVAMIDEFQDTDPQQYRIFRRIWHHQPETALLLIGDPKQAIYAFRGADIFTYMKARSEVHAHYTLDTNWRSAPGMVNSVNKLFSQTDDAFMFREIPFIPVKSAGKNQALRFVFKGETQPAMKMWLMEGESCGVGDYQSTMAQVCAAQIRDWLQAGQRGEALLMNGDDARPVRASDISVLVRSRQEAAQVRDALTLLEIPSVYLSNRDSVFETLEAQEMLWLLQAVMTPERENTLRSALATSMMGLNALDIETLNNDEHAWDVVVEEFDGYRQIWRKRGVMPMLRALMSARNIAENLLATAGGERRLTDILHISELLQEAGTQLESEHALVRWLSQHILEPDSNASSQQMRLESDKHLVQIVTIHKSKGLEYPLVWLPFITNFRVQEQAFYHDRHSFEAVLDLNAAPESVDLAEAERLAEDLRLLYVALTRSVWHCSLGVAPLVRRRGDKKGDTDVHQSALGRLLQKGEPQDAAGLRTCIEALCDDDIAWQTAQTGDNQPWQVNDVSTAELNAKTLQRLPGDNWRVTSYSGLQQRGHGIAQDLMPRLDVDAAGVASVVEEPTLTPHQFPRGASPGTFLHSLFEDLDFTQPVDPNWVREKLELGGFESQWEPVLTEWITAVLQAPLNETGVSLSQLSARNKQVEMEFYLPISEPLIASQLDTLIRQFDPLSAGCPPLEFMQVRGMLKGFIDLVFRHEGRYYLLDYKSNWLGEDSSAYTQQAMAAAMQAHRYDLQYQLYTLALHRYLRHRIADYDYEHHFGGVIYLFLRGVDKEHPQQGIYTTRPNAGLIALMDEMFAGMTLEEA

[7] = Counterscreen for AddAB inhibitors: absorbance-based bacterial cell-based high throughput dose response assay for inhibitors of bacterial viability. [Related pubchem assays (depositor defined):AID435030, AID449728, AID449731, AID488942, AID488955, AID488956]; assay type: functional
[8] = target: T4, Ubiquitin-conjugating enzyme E2 N (Homo sapiens, UniProt P61088); assay type: functional;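 also: Dose-response confirmation in a TR-FRET assay detecting UBC13-driven polyubiquitin chain formation, inhibition measured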
T4 sequence (P61088 whole entry): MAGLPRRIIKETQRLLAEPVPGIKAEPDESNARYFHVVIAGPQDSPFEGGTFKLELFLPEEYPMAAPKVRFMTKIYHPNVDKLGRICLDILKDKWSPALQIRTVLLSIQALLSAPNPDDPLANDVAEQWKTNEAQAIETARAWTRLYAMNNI

[9] = Luminescence Cell-Based Dose Retest to Confirm Inhibitors of Cancer Stem Cells. [Related pubchem assays (depositor defined):AID2717, AID2721]; assay type: functional; settings: Homo sapiens

SMILES: O=C(Nc1ccc(S(=O)(=O)NC2=NCCCCC2)cc1)c1ccc([N+](=O)[O-])s1
- AC50 (Paired box protein Pax-8): 5.3 µM (active)
- EC50 [1]: 0.201 µM (active)
- EC50 [2]: 8.46 µM (active)
- AC50 [3]: 5.11 µM (active)

- EC50 [4]: 2.11 µM (active)
SMILES: CCN(Cc1ccccc1)S(=O)(=O)c1ccc(C(=O)N(CCCN(C)C)c2nc3c(F)cccc3s2)cc1

SMILES: O=C(N/N=C/c1ccc([N+](=O)[O-])s1)C(O)c1ccccc1 (stereo not drawn)
- AC50 (INS1): 7.84 µM (active)
- EC50 [5]: 5.9 µM (active)
- EC50 [1]: 0.306 µM (active)
- EC50 [2]: > 60 µM (inconclusive)
- AC50 [3]: 4.48 µM (active)
- EC50 [6]: 5.56 µM (active)

- EC50 [4]: 6.68 µM (active)
SMILES: O=S(=O)(c1ccccc1)c1nnn2c1nc(NC1CCN(Cc3ccccc3)CC1)c1cc(Cl)ccc12

SMILES: CC(C)Oc1ccc(Cc2cnc(N)nc2N)cc1
- IC50 (Exodeoxyribonuclease V): 56.3 µM (inactive)
- IC50 [7]: 36.5 µM (inactive)

SMILES: FC(F)(F)c1cc(CCN2CCNC[C@@H]2Cc2ccccc2)cc(C(F)(F)F)c1
- IC50 [8]: > 20 µM (inactive)
- AC50 [3]: 12.3 µM (active)
- AC50 [9]: 13.3 µM (active)

- EC50 [4]: 0.133 µM (active)
SMILES: O=C(C1CCCN(Cc2ccccc2)C1)N1CCc2ccccc2C1 (stereo not drawn)
